Data as given in US20140127292A1, “PHARMACEUTICAL COMPOSITIONS FOR THE ORAL ADMINISTRATION OF HEPARIN OR DERIVATIVES THEREOF” (Cosmo Technologies Limited, priority 2001, published 2014).

System: colitis induced by trinitrobenzene sulfonic acid (TNBS)
Experiment: in vivo test: TNBS-induced colitis in rats, intracolonic treatment
Details: for Colon weight: 10 cm distal colon; for Colon weight / Macroscopic score / Necrosis areas (Mucosal Damage Area, MDA): day 4; for Body weight variation / Final body weight: days 1-3, day 4; for Macroscopic score / Necrosis areas (Mucosal Damage Area, MDA): distal colon
Protocol: 70 Wister male rats were kept fasted for 20 hours before the induction of colitis. In the morning of the experiment (day 0), the rats were injected with a 40% solution of ethanol containing 30 mg of trinitrobenzene sulfonic acid (TNBS) by means of a single intracolonic injection. On days 1, 2 and 3 after the induction of colitis, Dalteparin sodium suspended in 0.25 mL of a 1% sodium cholate in saline (0.3 mg/rat, 0.6 mg/rat and 0.9 mg/rat), or 0.25 mL of vehicle (1% sodium cholate in saline) were instilled intracolonically. An additional group constituted by 4 untreated rats was also included. On day 4 from the induction of colitis, animals were euthanized and autopsy was performed. The colon have been isolated and 10 cm of the distal portion have been resected and weighted. […] The results, summarized in the table below, have been compared with those obtained from the control animals.

[1] = 0.6 mg/rat/die intracolonic, listed as dalteparin sodium

Dalteparin sodium
Mortality (0.3 mg/rat/die intracolonic): 0%
Colon weight (0.3 mg/rat/die intracolonic): 1.72 ± 0.30 g
Colon weight (0.3 mg/rat/die intracolonic, listed as dalteparin sodium): 1.72 ± 0.30 g
Body weight variation (0.3 mg/rat/die intracolonic): −21%
Final body weight (0.3 mg/rat/die intracolonic): 166 ± 14 g
Macroscopic score (0.3 mg/rat/die intracolonic): 5.6 ± 0.52
Necrosis areas (Mucosal Damage Area, MDA) (0.3 mg/rat/die intracolonic): 463.4 ± 89.6 mm^2
Mortality (0.6 mg/rat/die intracolonic): 10%
Colon weight (0.6 mg/rat/die intracolonic): 1.80 ± 0.38 g
Body weight variation (0.6 mg/rat/die intracolonic): −15%
Final body weight (0.6 mg/rat/die intracolonic): 180 ± 17 g
Macroscopic score (0.6 mg/rat/die intracolonic): 4.9 ± 1.05
Necrosis areas (Mucosal Damage Area, MDA) (0.6 mg/rat/die intracolonic): 309.9 ± 155.8 mm^2
Macroscopic score [1]: 4.9±1.05
Necrosis areas (Mucosal Damage Area, MDA) [1]: 309.9±155.8 mm^2
Mortality (0.9 mg/rat/die intracolonic): 10%
Colon weight (0.9 mg/rat/die intracolonic): 1.76 ± 0.22 g
Colon weight (0.9 mg/rat/die intracolonic, listed as dalteparin sodium): 1.76 ± 0.22 g
Body weight variation (0.9 mg/rat/die intracolonic): −17%
Final body weight (0.9 mg/rat/die intracolonic): 176 ± 15 g
Macroscopic score (0.9 mg/rat/die intracolonic): 5.8 ± 0.44
Necrosis areas (Mucosal Damage Area, MDA) (0.9 mg/rat/die intracolonic): 492.5 ± 104.6 mm^2
overall effect of treatment on the considered parameters (0.3, 0.6 and 0.9 mg/rat intracolonic, versus vehicle control group): effective in reducing all the considered parameters
